Measured values published in EP1001810B1, “PHARMACEUTICAL COMPOSITION WITH NEUROTROPHIC-LIKE BIOLOGICAL ACTIVITY” (McGill University, priority 1997, dated 1999).
Where a SMILES comes first, the peptide text is derived from it. Bridges are numbered along the chain shown (N, C = ends).

Columns and labels:
[1] = molecular target: TrkA (Homo sapiens, UniProt P04629); details: binds TrkA specifically (LeSauteur 1995); read-out: apparent Kd; cited from earlier work
[2] = tested on: 4-3.6 cells; assay: Cell survival in SFM challenged with tyrosine kinase inhibitor K252a; assay type: cell-based, rat; details: highest concentration tested (500 nM)
Experimental: 5,000 cells/well in protein-free media (PFHM-II, GIBCO, Toronto, Ontario) containing 0.1% BSA (Crystalline fraction V, Sigma, St. Louis MO) were added to 96 well plates (Falcon, Mississauga, Ontario). The cultures were untreated or supplemented with serial dilutions of neurotrophins (positive control), test mAbs, or mouse IgG (negative control). The survival profile of the cells was quantitated using the MTT colorimetric assay after 48-72 hours. Percent protection was standardized relative to 1 nM NGF concentrations using the MTT optical density (OD 590 nm) and following formula: [(ODtest -ODuntreated )/(OD1nM NGF-ODuntreated )] × 100. [formula] The OD of untreated samples (SFM only) were ~10% of 1 nM NGF control.
Some survival experiments were also carried out in the presence of various concentrations of the tyrosine kinase inhibitor K252a. The concentrations of K252a used were previously reported.
Assays were done as described in Table 1 legend. 4-3.6 cell survival in SFM achieved by incubation with the indicated ligands. Optimal ligand concentrations were used as per Table 3 (1 nM NGF, 5 nM 5C3 mAb and 5 nM 5C3 + 0.5 nM MC192 mAbs) . Cells were challenged with various concentrations of K252a and % survival was calculated using 1 nM NGF as 100% standard. K252a inhibits both NGF and mAb-mediated survival in a dose dependent manner and to a similar relative degree.

Sequence of TrkA (P04629 33-796, species assumed): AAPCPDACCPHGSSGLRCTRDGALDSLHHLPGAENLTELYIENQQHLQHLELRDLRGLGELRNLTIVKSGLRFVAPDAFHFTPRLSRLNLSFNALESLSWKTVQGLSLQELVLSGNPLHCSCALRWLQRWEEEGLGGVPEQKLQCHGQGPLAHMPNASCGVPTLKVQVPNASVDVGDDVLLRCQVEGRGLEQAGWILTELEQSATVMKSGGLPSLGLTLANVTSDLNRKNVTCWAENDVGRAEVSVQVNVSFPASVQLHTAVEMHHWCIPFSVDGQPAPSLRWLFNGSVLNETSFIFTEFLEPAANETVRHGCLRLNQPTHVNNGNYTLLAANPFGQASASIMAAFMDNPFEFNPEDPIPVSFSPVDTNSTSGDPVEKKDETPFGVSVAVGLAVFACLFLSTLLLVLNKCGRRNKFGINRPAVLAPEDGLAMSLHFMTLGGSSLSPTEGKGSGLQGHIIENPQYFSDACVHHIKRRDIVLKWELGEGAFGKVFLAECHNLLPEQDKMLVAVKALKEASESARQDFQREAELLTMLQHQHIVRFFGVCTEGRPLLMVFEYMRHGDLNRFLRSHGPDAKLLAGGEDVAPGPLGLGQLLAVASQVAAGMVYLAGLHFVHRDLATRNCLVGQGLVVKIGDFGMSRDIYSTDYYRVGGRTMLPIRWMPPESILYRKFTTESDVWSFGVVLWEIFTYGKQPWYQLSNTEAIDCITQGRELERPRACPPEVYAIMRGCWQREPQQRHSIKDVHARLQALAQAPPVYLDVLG

SMILES | Kd [1] | toxicity to 4-3.6 cells [2]
CC(=O)N[C@@H](Cc1ccc(O)cc1)C(=O)N[C@H]1CSSC[C@@H](C(=O)N[C@@H](Cc2ccc(O)cc2)C(=O)O)NC(=O)[C@H](CCC(N)=O)NC(=O)[C@H](CCCCN)NC(=O)[C@H](CCC(=O)O)NC(=O)[C@H](CC(=O)O)NC(=O)[C@H]([C@@H](C)O)NC1=O [C(92-96)] (Ac-YCTDEKQCY-OH; disulfide 2-8) | ~100 nM | –
COC(=O)[C@@]1(O)C[C@H]2O[C@]1(C)n1c3ccccc3c3c4c(c5c6ccccc6n2c5c31)C(=O)NC4 [K252a] | – | not toxic
